Reference: the NIST ThermoML archive (doi:10.1016/j.fluid.2015.11.037)
Numbers after ± are expanded uncertainties. Values belong to the compound of their own block, whether it stands above or below them.

Columns and labels:
[1] = activity coefficient (dimensionless); of the first substance listed, at infinite dilution; xn = mol fraction of the nth substance listed; details: Liquid, x1 = 0
[2] = Liquid, Ebulliometric method (Recirculating still)
[3] = 333.15 K, 100 kPa, Rayleigh distillation
[4] = 303.15 K, 100 kPa, Rayleigh distillation
[5] = 313.15 K, 100 kPa, Rayleigh distillation
[6] = 323.15 K, 100 kPa, Rayleigh distillation
[7] = 293.15 K, 46.85 kPa, comparative ebulliometry
[8] = 303.15 K, 69.6 kPa, comparative ebulliometry
[9] = 311.15 K, 93.62 kPa, comparative ebulliometry

SMILES: CCCCO [butan-1-ol] + ClCCl
activity coefficient ([1]; 293.15 K, 100 kPa, differential distillation): 7.68 ± 0.65
activity coefficient ([1]; 303.15 K, 100 kPa, differential distillation): 6.18 ± 0.51
activity coefficient ([1]; 311.15 K, 100 kPa, differential distillation): 5.43 ± 0.57

SMILES: ClCCl [dichloromethane]
vapor or sublimation pressure ([2]; 285.89 K): 34.66 ± 0.065 kPa
vapor or sublimation pressure ([2]; 287.58 K): 37.33 ± 0.068 kPa
vapor or sublimation pressure ([2]; 289.94 K): 41.33 ± 0.073 kPa
vapor or sublimation pressure ([2]; 292.12 K): 45.33 ± 0.078 kPa
vapor or sublimation pressure ([2]; 294.15 K): 49.33 ± 0.083 kPa
vapor or sublimation pressure ([2]; 296.05 K): 53.33 ± 0.09 kPa
vapor or sublimation pressure ([2]; 298.41 K): 58.66 ± 0.095 kPa
vapor or sublimation pressure ([2]; 300.61 K): 63.99 ± 0.1 kPa
vapor or sublimation pressure ([2]; 302.67 K): 69.33 ± 0.11 kPa
vapor or sublimation pressure ([2]; 304.61 K): 74.66 ± 0.12 kPa
vapor or sublimation pressure ([2]; 306.43 K): 79.99 ± 0.12 kPa
vapor or sublimation pressure ([2]; 308.17 K): 85.33 ± 0.13 kPa
vapor or sublimation pressure ([2]; 309.82 K): 90.66 ± 0.13 kPa
vapor or sublimation pressure ([2]; 311.39 K): 95.99 ± 0.14 kPa

SMILES: ClCCl [dichloromethane] + CCCCO
activity coefficient ([1]; 283.15 K, 100 kPa, inert gas stripping): 1.85 ± 0.1
activity coefficient ([1]; 293.15 K, 100 kPa, inert gas stripping): 1.86 ± 0.11
activity coefficient ([1]; 303.15 K, 100 kPa, inert gas stripping): 1.86 ± 0.11
activity coefficient ([1]; 313.15 K, 100 kPa, inert gas stripping): 1.86 ± 0.11
activity coefficient ([1]; 323.15 K, 100 kPa, inert gas stripping): 1.83 ± 0.1
activity coefficient ([1]; 333.15 K, 100 kPa, inert gas stripping): 1.76 ± 0.1

SMILES: ClCCl [dichloromethane] + CCCO
activity coefficient ([1]; 283.15 K, 100 kPa, Inert gas stripping): 1.99 ± 0.12
activity coefficient ([1]; 293.15 K, 100 kPa, Inert gas stripping): 2 ± 0.16
activity coefficient ([1]; 303.15 K, 100 kPa, Inert gas stripping): 2.02 ± 0.16
activity coefficient ([1]; 313.15 K, 100 kPa, Inert gas stripping): 2.05 ± 0.16
activity coefficient ([1]; 323.15 K, 100 kPa, Inert gas stripping): 2.04 ± 0.16
activity coefficient ([1]; 333.15 K, 100 kPa, Inert gas stripping): 2.02 ± 0.16
activity coefficient [1, 3]: 2.06 ± 0.16

SMILES: ClCCl [dichloromethane] + CCO
activity coefficient [1, 4]: 2.29 ± 0.18
activity coefficient [1, 5]: 2.3 ± 0.18
activity coefficient [1, 6]: 2.29 ± 0.18
activity coefficient [1, 3]: 2.27 ± 0.18
activity coefficient ([1]; 343.15 K, 100 kPa, Rayleigh distillation): 2.18 ± 0.25

SMILES: CCO [ethanol] + ClCCl
activity coefficient [1, 7]: 9.56 ± 0.78
activity coefficient [1, 8]: 7.98 ± 0.65
activity coefficient [1, 9]: 7.09 ± 0.58

Other lines, results leading:

activity coefficient ([1]; 293.15 K, 100 kPa, Rayleigh distillation): 2.84 ± 0.24
activity coefficient [1, 4]: 2.87 ± 0.23
activity coefficient [1, 5]: 2.87 ± 0.23
activity coefficient [1, 6]: 2.83 ± 0.23
activity coefficient [1, 3]: 2.81 ± 0.22
SMILES: ClCCl [dichloromethane] + CO

activity coefficient [1, 7]: 13.4 ± 1.3
activity coefficient [1, 8]: 11.6 ± 1.1
activity coefficient [1, 9]: 9.86 ± 0.89
SMILES: CO [methanol] + ClCCl

activity coefficient [1, 7]: 8.38 ± 0.7
activity coefficient [1, 8]: 6.99 ± 0.61
activity coefficient [1, 9]: 5.98 ± 0.51
SMILES: CCCO [propan-1-ol] + ClCCl
